Source: US20250368645A1, “BETA CARBOLINE ANALOGUES AS SELECTIVE AND BIASED KAPPA OPIOID RECEPTORS AGONISTS FOR TREATING VARIOUS ASSOCIATED PATHOPHYSIOLOGICAL CONDITIONS” (COUNCIL OF SCIENTIFIC AND INDUSTRIAL RESEARCH, priority 2022, published 2025)

Legend:
Format in all cases: cell-based
DOR = DOR (Homo sapiens, UniProt P41143); experiment: GloSensor assay at DOR; settings: given as Log IC50 (negative values)
MOR = MOR (Homo sapiens, UniProt P35372); experiment: GloSensor assay at MOR; settings: given as Log IC50 (negative values)
human KOR = human KOR (Homo sapiens, UniProt P41145); experiment: GloSensor assay, Gi-mediated cAMP inhibition in HEK-293T cells transfected with human KOR; settings: given as Log IC50 (negative values); agonist activity, inhibition of FSK-stimulated cAMP; read-out: GloSensor Assay (Log IC50) KOR (converted)
Chain of human KOR (P41145 whole entry): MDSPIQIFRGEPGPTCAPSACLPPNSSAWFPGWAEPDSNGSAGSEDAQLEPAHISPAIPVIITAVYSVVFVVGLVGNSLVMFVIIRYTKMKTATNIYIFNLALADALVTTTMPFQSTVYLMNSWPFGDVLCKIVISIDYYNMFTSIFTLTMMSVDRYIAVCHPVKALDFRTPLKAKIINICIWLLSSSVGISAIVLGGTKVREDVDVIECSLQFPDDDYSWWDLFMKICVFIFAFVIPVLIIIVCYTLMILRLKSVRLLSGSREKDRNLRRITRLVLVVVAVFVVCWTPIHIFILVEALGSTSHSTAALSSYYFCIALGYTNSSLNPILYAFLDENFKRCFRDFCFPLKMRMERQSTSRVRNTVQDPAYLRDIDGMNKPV

Chain of DOR (P41143 whole entry): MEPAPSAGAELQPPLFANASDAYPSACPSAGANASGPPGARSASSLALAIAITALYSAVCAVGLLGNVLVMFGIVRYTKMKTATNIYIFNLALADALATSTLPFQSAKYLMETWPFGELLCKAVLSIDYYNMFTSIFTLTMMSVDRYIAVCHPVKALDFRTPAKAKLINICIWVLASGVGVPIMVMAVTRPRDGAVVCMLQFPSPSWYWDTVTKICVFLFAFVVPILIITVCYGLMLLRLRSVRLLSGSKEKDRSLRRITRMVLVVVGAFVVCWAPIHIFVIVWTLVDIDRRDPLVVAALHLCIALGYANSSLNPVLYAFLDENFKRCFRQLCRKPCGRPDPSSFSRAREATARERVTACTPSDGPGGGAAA
Chain of MOR (P35372 whole entry): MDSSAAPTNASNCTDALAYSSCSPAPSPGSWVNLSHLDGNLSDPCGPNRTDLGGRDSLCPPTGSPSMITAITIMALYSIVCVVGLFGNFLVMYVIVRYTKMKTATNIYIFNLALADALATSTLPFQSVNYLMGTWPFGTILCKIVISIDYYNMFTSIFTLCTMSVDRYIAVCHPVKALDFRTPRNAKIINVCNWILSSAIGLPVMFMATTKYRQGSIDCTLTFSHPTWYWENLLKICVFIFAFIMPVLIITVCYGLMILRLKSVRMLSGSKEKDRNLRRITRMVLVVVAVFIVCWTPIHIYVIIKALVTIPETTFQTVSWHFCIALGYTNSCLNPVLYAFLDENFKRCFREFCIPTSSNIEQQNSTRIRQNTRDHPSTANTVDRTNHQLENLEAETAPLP

Row | SMILES | IC50 (DOR) [µM] | IC50 (MOR) [µM] | IC50 (human KOR) [µM]
1 | Cn1c2ccccc2c2cc[n+]3cn(-c4ccc(Cl)cc4)c(-c4ccc(Br)cc4)c3c21 [8dbc, 1-(4-Bromophenyl)-2-(4-chlorophenyl)-11-methyl-2,11 dihydroimidazo[1′,5′:1,2]pyrido[3,4-b]indol-4-iumchloride] | > 10 | > 10 | > 10
2 | Fc1ccc(-n2c[n+]3c4ccccc4c4c5ccccc5[nH]c4c3c2-c2ccc(Br)cc2)cc1 [12cc, 1-4-Bromphenyl)-2-(4-fluorophenyl)-2,13-dihydroimidazo[1,5-a]indolo[2,3-c]quinolin-4-ium chloride] | > 10 | > 10 | > 10
3 | O=[N+]([O-])c1ccc(-c2c3c4[nH]c5ccccc5c4cc[n+]3cn2-c2ccc(F)cc2)cc1 [8ald, 2-(4-Fluorophenyl)-1-(4-nitrophenyl)-2,11-dihydrolmidazo[1′,5′:1,2]pyrido[3,4-b]indol-4-ium chloride] | > 10 | > 10 | > 10
4 | Cn1c2ccccc2c2cc[n+]3cn(-c4ccc(Cl)cc4)c(-c4ccc(Cl)cc4)c3c21 [8ddc, 1,2-Bis(4-chlorophenyl)-11-methyl-2,11-dihydroimidazo[1′,5′:1,2]pyrido[3,4-b]indol-4-iumchloride] | > 10 | > 10 | > 10
5 | Cn1c2ccccc2c2cc[n+]3cn(-c4ccc(F)cc4)c(-c4ccc(Br)cc4)c3c21 [8dbd, 1-(4-Bromophenyl)-2-(4-fluorophenyl)-11-methyl-2,11-dihydroimidazo[1′,5′:1,2]pyrido[3,4-b]indol-4-iumchloride] | > 10 | > 10 | > 10
6 | Fc1ccc(-c2c3c4[nH]c5ccccc5c4cc[n+]3cn2-c2ccccc2)cc1 [8aga, 1-(4-Fluorophenyl)-2-phenyl-2,11-dihydroimidazo[1′,5′:1,2]pyrido[3,4-b]indol-4-ium chloride] | > 10 | > 10 | > 10
7 | FC(F)(F)Oc1ccc(-n2c[n+]3ccc4c5ccccc5[nH]c4c3c2-c2ccc(Br)cc2)cc1 [8abh] | > 10 | > 10 | > 10
8 | Fc1cccc(-n2c[n+]3ccc4c5ccccc5[nH]c4c3c2-c2ccc(Br)cc2)c1 [8abi, 1-(4-Bromophenyl)-2-(3-fluorophenyl)-2,11-dihydroimidazo[1′,5′:1,2]pyrido[3,4-b]indol-4-ium chloride] | > 10 | > 10 | > 10
9 | Brc1ccc(-c2c3c4[nH]c5ccccc5c4cc[n+]3cn2Cc2ccccc2)cc1 [9aaa, 2-Benzyl-1-(4-bromophenyl)-2,11-dihydroimidazo[1′,5′:1,2]pyrido[3,4-b]indol-4-ium chloride] | > 10 | > 10 | > 10
10 | Brc1cccc(-n2c[n+]3ccc4c5ccccc5[nH]c4c3c2-c2ccccc2)c1 [8aae, 2-(3-Bromophenyl)-1-phenyl-2,11-dihydrolmidazo[1′,5′:1,2]pyrido[3,4-b]indol-4-ium chloride] | > 10 | > 10 | > 10
11 | COc1ccc(-n2c[n+]3ccc4c5ccccc5[nH]c4c3c2-c2ccc(Br)cc2)cc1 [8abg, 1-(4-Bromophenyl)-2-(4-methoxyphenyl)-2,11-dihydrolmidazo[1′,5′:1,2]pyrido[3,4-b]indol-4-ium chloride] | > 10 | > 10 | > 10
12 | Fc1cccc(-n2c[n+]3ccc4c5ccccc5[nH]c4c3c2-c2ccccc2Br)c1 [8aci, 1-(2-Bromophenyl)-2-(3-fluorophenyl)-2,11-dihydroimidazo[1′,5′:1,2]pyrido[3,4-b]indol-4-ium] | > 10 | > 10 | 0.0631
13 | Fc1ccc(-c2c3c4[nH]c5ccccc5c4cc[n+]3cn2-c2ccc(Cl)cc2)cc1 [8agc, 2-(4-Chlorophenyl)-1-(4-fluorophenyl)-2,11-dihydrolmidazo[1′,5′:1,2]pyrido[3,4-b]indol-4-ium chloride] | > 10 | > 10 | > 10
14 | Clc1cccc(-n2c[n+]3ccc4c5ccccc5[nH]c4c3c2-c2ccccc2)c1 [8aaf, 2-(3-Chlorophenyl)-1-phenyl-2,11-dihydroimidazo[1′,5′:1,2]pyrido[3,4-b]indol-4-ium chloride] | > 10 | > 10 | > 10
15 | FC(F)(F)c1ccc(Cn2c[n+]3ccc4c5ccccc5[nH]c4c3c2-c2ccc(Br)cc2)cc1 [9aad, 1-(4-Bromophenyl)-2-(4-(trifluoromethyl)benzyl)-2,11-dihydroimidazo[1′,5′:1,2]pyrido[3,4-b]indol-4-ium chloride] | > 10 | > 10 | > 10
16 | Clc1ccc(-c2c3c4[nH]c5ccccc5c4cc[n+]3cn2-c2cccc(Br)c2)cc1 [8ade, 2-(3-Bromophenyl)-1-(4-chlorophenyl)-2,11-dihydroimidazo[1′,5′:1,2]pyrido[3,4-b]indol-4-ium chloride] | > 10 | > 10 | > 10
17 | c1ccc(-n2c[n+]3ccc4c5ccccc5[nH]c4c3c2-c2cc3ccccc3o2)cc1 [8amd, 1-(Benzofuran-2-yl)-2-phenyl-2,11-dihydroimidazo[1′,5′:1,2]pyrido[3,4-b]indol-4-ium chloride] | > 10 | > 10 | 0.0398
18 | Fc1ccc(Cn2c[n+]3ccc4c5ccccc5[nH]c4c3c2-c2ccc(Br)cc2)cc1 [9aab, 1-(4-Bromophenyl)-2-(4-fluorobenzyl)-2,11-dihydroimidazo[1′,5′:1,2]pyrido[3,4-b]indol-4-ium chloride] | > 10 | > 10 | 0.263
19 | Clc1ccc(-n2c[n+]3c4ccccc4c4c5ccccc5[nH]c4c3c2-c2ccc(Br)cc2)cc1 [12bd, 1-(4-Bromophenyl)-2-(4-chlorophenyl)-2,13-dihydroimidazo[1,5-a]indolo[2,3-c]quinolin-4-ium chloride] | > 10 | > 10 | > 10
20 | COC(=O)c1cc2c3ccccc3[nH]c2c2c(C)n(-c3ccc(F)cc3)c[n+]12 [8bpd, 2-(4-Fluorophenyl)-5-(methoxycarbonyl)-1-methyl-2,11-dihydroimidazo[1′,5′:1,2]pyrido[3,4-b]indol-4-ium chloride] | > 10 | > 10 | 3.16
21 | Brc1ccc(-c2c3c4[nH]c5ccccc5c4cc[n+]3cn2-c2ccccc2)cc1 [8aba, 1-(4-Bromophenyl)-2-phenyl-2,11-dihydroimidazo[1′,5′:1,2]pyrido[3,4-b]indol-4-ium chloride] | > 10 | > 10 | 0.0708
22 | Fc1ccc(-n2c[n+]3ccc4c5ccccc5[nH]c4c3c2-c2ccccc2)cc1 [8aad, 2-(4-Fluorophenyl)-1-phenyl-2,11-dihydroimidazo[1′,5′:1,2]pyrido[3,4-b]indol-4-ium chloride] | > 10 | > 10 | 0.269
23 | Clc1ccc(-c2c3c4[nH]c5ccccc5c4c4ccccc4[n+]3cn2-c2ccc(Br)cc2)cc1 [12db, 2(4-Bromophenyl-1-(4-chlorophenyl)-2,13-dihydroimidazo[1,5-a]indolo[2,3-c]quinolin-4-ium chloride] |  |  | 0.251
